Assay results reported in ChEMBL document CHEMBL1201862, “PubChem BioAssay data set” (2004).
Blank lines part the entries; values can stand above or below the compound they belong to. The source made the active and inactive calls.

What was measured:
Cytochrome P450 2C19 = Cytochrome P450 2C19 (Homo sapiens, UniProt P33261); experiment: Cytochrome panel assay with activity outcomes. Panel member name: p450-cyp2c19 Compounds with AC50 equal or less than 10 uM are considered active; format: functional; conditions: read-out: AC50
Cytochrome P450 2C9 = Cytochrome P450 2C9 (Homo sapiens, UniProt P11712)
Cytochrome P450 3A4 = Cytochrome P450 3A4 (Homo sapiens, UniProt P08684);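 further: CYP3A4 tested as one member of a cytochrome P450 panel screen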
Cysteine protease ATG4B = molecular target: T1, Cysteine protease ATG4B (Homo sapiens, UniProt Q9Y4P1); format: functional;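 further: Fluorescence-based dose-response confirmation assay measuring inhibition of ATG4B activity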
T1 sequence (Q9Y4P1 whole entry): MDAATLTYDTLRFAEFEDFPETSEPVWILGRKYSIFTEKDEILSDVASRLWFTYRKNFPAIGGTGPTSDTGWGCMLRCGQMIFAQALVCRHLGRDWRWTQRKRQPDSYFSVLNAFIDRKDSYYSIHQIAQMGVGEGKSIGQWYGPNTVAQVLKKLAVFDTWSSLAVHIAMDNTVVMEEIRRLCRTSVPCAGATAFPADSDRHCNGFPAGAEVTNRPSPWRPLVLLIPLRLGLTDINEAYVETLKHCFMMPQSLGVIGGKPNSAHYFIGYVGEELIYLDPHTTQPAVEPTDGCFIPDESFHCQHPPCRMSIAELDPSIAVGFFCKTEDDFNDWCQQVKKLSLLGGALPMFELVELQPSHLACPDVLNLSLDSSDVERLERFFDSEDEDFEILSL

Phospholipase A2 = Phospholipase A2 (Homo sapiens, UniProt P04054); format: functional;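 further: confirmatory dose-response counterscreen on phospholipase A2, testing hits that came from an ultra-high-throughput screen for ATG4B inhibitors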
[1] = molecular target: T2, Ubiquitin-conjugating enzyme E2 N (Homo sapiens, UniProt P61088); format: functional;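 further: Dose-response confirmation in a TR-FRET assay detecting UBC13-driven polyubiquitin chain formation, inhibition measured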
T2 sequence (P61088 whole entry): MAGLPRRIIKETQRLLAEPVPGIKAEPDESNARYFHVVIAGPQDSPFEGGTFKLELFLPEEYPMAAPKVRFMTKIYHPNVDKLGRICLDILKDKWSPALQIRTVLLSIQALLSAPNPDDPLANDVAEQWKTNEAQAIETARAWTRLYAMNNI

HEK293 [2] = experiment: inhibition of NOD1-driven NF-kB reporter – cell-based, luminescence, uHTS, primary screen (AID 1578); format: functional; conditions: Homo sapiens
HEK293 [3] = experiment: NOD2 signaling inhibitors in MDP-stimulated cells, cell-based, uHTS, luminescence (AID 2001); format: functional; conditions: Homo sapiens
HEK293 [4] = experiment: cells; format: functional, cell-based; conditions: Homo sapiens
HEK293 [5] = experiment: cells; format: functional, cell-based; conditions: Homo sapiens; remark: listed apart in the source
[6] = molecular target: Nucleotide-binding oligomerization domain-containing protein 2 (Homo sapiens, UniProt Q9HC29); experiment: inhibition of NOD2-driven NF-kB reporter – cell-based, luminescence, uHTS, HEK293 (AID 1566); format: functional
HEK293 [7] = experiment: cells; format: functional, cell-based; conditions: Homo sapiens; remark: listed apart in the source
[8] = non-specific 3'UTR reporter inhibition in Clone20-Shn3RL – cell-based, Renilla luciferase, cherry-picked, counter-screen for Shn3 inhibitor project, dose response (AID 624133); format: functional
[9] = reduction of Shn3 3'UTR-driven luciferase in osteoblasts – cell-based, Clone20 osteoblasts, firefly luciferase, cherry-picked, dose response (AID 624132); format: functional;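 further: firefly luciferase luminescence from reporter carrying the Shn3 3'UTR in osteoblasts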
HEK293 [10] = experiment: cells; format: functional, cell-based; conditions: Homo sapiens; remark: listed apart in the source
[11] = molecular target: T3, Nuclear receptor subfamily 0 group B member 1 (Homo sapiens, UniProt P51843); experiment: Luminescence-based cell-based high throughput dose response assay for inhibitors of the orphan nuclear receptor subfamily 0, group B, member 1 (DAX1; NR0B1). [Related pubchem assays (depositor defined):AID504766, AID504790]; format: functional
T3 sequence (P51843 whole entry): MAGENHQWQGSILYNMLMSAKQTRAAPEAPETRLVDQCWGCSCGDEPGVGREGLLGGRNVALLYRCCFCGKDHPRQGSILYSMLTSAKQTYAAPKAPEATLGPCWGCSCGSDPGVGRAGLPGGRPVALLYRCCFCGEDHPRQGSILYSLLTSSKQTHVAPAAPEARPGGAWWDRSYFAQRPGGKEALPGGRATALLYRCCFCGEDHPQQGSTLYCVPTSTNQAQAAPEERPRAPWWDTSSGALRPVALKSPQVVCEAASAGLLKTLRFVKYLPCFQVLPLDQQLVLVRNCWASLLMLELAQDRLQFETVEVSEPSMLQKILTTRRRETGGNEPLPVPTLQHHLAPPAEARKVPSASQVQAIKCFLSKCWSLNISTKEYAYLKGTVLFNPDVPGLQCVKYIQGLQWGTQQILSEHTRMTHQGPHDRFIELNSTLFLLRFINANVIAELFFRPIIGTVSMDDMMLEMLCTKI

[12] = Trypanosoma cruzi growth suppression in host cells – NIH3T3 host cells, beta-gal luminescence, confirmation (AID 2044); format: functional, cell-based;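 further: intracellular parasites grown in NIH/3T3 mouse fibroblasts as host cells; luminescent beta-galactosidase reporter signal from transgenic T. cruzi replicating inside host cells; inhibitors lower the luminescence signal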
[13] = NIH-3T3 fibroblast cytotoxicity, dose response, cytotoxicity control, cell-based, fluorescence, Alamar Blue, secondary assay (AID 2327); format: functional;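 further: NIH-3T3 mouse fibroblasts cultured with fluconazole at 8 µg/mL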
[14] = fluconazole-exposed Candida albicans growth modulators – fluorescence, retest, confirmation (AID 2467); format: functional, cell-based
[15] = NIH3T3 cell viability loss – ATP luminescence, mouse fibroblasts, counter-screen, dose response (AID 2010); format: functional, cell-based;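 further: cells exposed to compound for about 90 hours before reading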
Cytochrome P450 2D6 = Cytochrome P450 2D6 (Homo sapiens, UniProt P10635);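 further: CYP2D6 member of a cytochrome P450 panel assay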
[16] = molecular target: T4, High affinity choline transporter 1 (Homo sapiens, UniProt Q9GZV3); experiment: human choline transporter blockers, potency – cell-based, 5-point CRC, membrane potential dye, dose response (AID 504840); format: functional
T4 sequence (Q9GZV3 whole entry): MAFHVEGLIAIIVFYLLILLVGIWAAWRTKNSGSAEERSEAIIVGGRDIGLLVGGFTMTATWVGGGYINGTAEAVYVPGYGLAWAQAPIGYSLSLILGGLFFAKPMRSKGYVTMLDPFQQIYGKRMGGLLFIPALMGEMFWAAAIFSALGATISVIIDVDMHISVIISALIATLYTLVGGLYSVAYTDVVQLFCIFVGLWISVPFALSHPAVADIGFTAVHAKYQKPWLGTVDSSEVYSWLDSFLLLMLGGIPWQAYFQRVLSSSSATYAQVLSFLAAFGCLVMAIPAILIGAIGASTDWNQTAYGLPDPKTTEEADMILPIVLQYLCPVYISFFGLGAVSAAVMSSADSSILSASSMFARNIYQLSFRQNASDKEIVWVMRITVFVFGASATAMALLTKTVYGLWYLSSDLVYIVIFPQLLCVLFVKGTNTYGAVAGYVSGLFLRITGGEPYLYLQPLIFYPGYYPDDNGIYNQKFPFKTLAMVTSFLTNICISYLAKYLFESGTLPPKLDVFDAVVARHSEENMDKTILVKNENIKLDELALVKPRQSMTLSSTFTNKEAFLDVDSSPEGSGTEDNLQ

[17] = loss of viability in HepG2 cells – cell-based, CellTiter-Glo, cherry-picked, cytotoxicity control for Shn3 inhibitor project, dose response (AID 624134); format: functional
Cytochrome P450 1A2 = molecular target: T5, Cytochrome P450 1A2 (Homo sapiens, UniProt P05177);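 further: PubChem cytochrome P450 panel assay, CYP1A2 panel member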
T5 sequence (P05177 whole entry): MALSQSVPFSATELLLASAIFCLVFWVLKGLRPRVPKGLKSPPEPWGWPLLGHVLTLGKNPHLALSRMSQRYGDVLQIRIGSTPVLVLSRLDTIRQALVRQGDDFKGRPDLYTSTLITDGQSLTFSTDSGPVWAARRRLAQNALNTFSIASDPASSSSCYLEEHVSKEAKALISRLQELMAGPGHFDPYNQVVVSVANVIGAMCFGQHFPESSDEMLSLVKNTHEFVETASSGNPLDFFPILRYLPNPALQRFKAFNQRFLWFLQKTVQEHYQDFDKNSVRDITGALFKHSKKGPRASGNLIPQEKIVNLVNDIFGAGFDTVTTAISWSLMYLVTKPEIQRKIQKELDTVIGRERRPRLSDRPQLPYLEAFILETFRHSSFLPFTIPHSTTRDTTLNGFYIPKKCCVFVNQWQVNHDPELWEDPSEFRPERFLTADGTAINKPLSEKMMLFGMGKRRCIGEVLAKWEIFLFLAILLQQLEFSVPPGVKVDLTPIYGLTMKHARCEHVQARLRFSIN

Chain of Phospholipase A2 (P04054 whole entry): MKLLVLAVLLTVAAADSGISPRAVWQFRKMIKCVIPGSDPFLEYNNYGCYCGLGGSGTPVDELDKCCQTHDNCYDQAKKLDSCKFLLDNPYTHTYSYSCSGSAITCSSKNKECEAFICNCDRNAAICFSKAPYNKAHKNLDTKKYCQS
Chain of Cytochrome P450 3A4 (P08684 whole entry): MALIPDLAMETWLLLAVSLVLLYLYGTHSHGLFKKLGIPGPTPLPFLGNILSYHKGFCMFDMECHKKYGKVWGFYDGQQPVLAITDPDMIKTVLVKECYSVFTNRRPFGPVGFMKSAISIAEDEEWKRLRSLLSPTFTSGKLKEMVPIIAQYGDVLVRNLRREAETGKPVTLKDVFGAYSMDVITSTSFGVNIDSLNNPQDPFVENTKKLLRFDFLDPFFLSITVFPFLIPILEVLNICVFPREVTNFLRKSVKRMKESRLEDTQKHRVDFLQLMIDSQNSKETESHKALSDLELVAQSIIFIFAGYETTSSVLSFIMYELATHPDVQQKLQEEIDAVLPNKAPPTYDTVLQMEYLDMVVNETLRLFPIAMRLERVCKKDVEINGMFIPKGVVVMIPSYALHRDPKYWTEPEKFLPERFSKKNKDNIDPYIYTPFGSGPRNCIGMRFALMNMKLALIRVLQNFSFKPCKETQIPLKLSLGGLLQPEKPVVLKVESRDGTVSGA
Chain of Nucleotide-binding oligomerization domain-containing protein 2 (Q9HC29 whole entry, the tested form may be a part): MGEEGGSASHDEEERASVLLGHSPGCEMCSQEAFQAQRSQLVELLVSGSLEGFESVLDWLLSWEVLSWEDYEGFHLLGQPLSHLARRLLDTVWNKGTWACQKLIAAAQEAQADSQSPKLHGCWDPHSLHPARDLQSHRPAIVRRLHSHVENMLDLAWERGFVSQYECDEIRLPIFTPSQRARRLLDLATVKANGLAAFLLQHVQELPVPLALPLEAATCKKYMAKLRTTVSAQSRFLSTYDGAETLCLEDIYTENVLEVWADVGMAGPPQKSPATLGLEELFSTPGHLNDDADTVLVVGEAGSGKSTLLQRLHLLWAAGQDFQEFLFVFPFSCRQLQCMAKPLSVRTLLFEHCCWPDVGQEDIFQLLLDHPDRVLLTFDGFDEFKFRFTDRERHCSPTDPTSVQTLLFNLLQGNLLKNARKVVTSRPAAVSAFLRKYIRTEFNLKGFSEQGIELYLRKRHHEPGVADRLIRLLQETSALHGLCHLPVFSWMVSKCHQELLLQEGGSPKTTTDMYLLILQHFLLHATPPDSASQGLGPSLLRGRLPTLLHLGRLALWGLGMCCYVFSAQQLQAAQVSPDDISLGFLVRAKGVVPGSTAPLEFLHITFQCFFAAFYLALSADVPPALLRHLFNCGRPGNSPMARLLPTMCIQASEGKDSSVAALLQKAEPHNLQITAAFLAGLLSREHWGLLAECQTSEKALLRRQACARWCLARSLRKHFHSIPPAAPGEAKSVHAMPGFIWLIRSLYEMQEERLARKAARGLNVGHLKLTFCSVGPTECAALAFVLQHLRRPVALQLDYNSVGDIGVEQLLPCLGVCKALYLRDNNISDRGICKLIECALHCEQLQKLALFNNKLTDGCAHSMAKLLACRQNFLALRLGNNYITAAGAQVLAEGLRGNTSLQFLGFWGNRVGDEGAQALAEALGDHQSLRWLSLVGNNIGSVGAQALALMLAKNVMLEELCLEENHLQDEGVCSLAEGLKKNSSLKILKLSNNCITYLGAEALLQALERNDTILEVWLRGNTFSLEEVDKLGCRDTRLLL
Chain of Cytochrome P450 2C9 (P11712 whole entry): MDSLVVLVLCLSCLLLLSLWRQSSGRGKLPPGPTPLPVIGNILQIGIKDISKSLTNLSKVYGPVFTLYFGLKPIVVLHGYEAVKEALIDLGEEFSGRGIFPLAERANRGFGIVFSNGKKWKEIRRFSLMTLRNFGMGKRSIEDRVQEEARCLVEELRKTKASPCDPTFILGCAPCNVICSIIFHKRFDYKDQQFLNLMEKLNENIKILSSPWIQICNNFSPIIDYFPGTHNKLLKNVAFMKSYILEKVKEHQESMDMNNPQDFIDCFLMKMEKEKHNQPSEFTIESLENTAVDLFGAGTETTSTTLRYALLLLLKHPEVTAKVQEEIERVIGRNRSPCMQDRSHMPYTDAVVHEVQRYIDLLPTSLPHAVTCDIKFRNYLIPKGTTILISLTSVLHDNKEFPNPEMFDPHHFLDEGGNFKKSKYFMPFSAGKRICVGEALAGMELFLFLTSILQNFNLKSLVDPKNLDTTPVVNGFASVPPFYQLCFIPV
Chain of Cytochrome P450 2D6 (P10635 whole entry): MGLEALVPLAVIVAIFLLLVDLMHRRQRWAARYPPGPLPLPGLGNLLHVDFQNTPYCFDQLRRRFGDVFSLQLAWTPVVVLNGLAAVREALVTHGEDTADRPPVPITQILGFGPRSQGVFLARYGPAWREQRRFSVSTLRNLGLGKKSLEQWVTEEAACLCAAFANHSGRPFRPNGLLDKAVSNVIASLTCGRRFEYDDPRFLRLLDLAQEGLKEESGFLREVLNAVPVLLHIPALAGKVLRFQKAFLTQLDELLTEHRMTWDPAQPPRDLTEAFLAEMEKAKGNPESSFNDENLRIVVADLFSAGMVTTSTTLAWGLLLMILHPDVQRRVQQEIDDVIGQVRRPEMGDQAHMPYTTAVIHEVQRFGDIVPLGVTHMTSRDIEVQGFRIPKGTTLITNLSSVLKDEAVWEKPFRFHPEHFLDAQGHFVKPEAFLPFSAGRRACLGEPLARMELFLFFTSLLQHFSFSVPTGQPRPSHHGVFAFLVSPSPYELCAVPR
Chain of Cytochrome P450 2C19 (P33261 whole entry): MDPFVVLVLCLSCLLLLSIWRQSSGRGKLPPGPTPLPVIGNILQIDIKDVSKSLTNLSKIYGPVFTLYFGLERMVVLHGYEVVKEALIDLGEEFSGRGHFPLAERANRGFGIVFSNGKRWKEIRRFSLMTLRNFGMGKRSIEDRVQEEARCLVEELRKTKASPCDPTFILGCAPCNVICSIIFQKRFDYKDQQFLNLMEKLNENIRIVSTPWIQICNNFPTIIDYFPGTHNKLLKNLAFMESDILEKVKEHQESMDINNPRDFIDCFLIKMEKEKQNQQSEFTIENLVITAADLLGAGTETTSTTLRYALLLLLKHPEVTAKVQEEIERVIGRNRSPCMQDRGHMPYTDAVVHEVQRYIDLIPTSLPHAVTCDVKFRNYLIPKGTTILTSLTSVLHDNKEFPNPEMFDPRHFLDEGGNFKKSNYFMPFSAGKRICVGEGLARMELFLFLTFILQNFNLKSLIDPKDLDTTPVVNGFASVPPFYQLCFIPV

AC50 (Cytochrome P450 2C19): 25.1 µM (inconclusive) | AC50 (Cytochrome P450 2C9): 25.1 µM (inconclusive) | AC50 (Cytochrome P450 3A4): inconclusive
SMILES: CCOC(=O)c1c(-c2ccccc2)nc2ccccn12

IC50 (Cysteine protease ATG4B): 12.2 µM (active) | IC50 (Phospholipase A2): 9.31 µM (active) | IC50 [1]: > 20 µM (inactive)
SMILES: CCCCn1c(SCC(=O)Nc2cc(C)n[nH]2)nc2ccsc2c1=O

SMILES: COC(=O)c1sccc1NC(=O)CSc1ccccc1NS(=O)(=O)c1cc(Cl)ccc1Cl
EC50 (HEK293 [2]): 6.42 µM (active) | IC50 (HEK293 [3]): 5.68 µM (active) | IC50 (HEK293 [4]): 8.22 µM (active) | IC50 (HEK293 [5]): > 20 µM (inactive) | EC50 [6]: 6.35 µM (active) | IC50 (HEK293 [7]): > 20 µM (inactive)

SMILES: O=C(c1ccc(S(=O)(=O)c2ccc(F)cc2)c([N+](=O)[O-])c1)N1CCCCCC1
EC50 (HEK293 [2]): 4.38 µM (active) | AC50 [8]: 9.68 µM (active) | IC50 (HEK293 [3]): 5.8 µM (active) | IC50 (HEK293 [4]): 5.7 µM (active) | IC50 (HEK293 [5]): > 20 µM (inactive) | EC50 [6]: 14.8 µM (active) | IC50 (HEK293 [7]): > 20 µM (inactive) | AC50 [9]: 2.38 µM (active)

SMILES: CC1=CC(c2ccccc2)n2nnnc2N1 (stereo not given)
IC50 (HEK293 [10]): > 67.6 µM (inactive) | IC50 [11]: > 67.6 µM (inactive)

IC50 (Cysteine protease ATG4B): 11.5 µM (active) | IC50 (Phospholipase A2): 7.65 µM (active)
SMILES: O=C(c1ccccc1)c1cnc(Nc2ccccc2Cl)s1

IC50 (Cysteine protease ATG4B): 18.3 µM (active) | IC50 (Phospholipase A2): 13.4 µM (active)
SMILES: COc1ccc(-c2[nH]nc3c2C(c2ccc(OC(=O)N4CCOCC4)cc2)C(C#N)=C(N)O3)cc1 (stereo not given)

SMILES: O=C(c1ccccc1)c1ccc2[nH]c(-c3ccc(NC(=O)c4ccccc4Br)cc3)nc2c1
EC50 [12]: 1.59 µM (active) | EC50 [13]: 2.97 µM (active) | EC50 [14]: 6.15 µM (active) | EC50 [15]: 7.33 µM (active) | AC50 (Cytochrome P450 2D6): 14.1 µM (inconclusive) | AC50 (Cytochrome P450 3A4): inconclusive

SMILES: COc1ccc(-c2nc(CN3CCN(c4ncnc5ccccc45)CC3)c(C)o2)c(OC)c1
EC50 (HEK293 [2]): 5.23 µM (active) | AC50 [8]: 5.24 µM (active) | IC50 (HEK293 [3]): 6.38 µM (active) | IC50 (HEK293 [4]): 6.96 µM (active) | IC50 (HEK293 [5]): > 20 µM (inactive) | EC50 [6]: 5.52 µM (active) | IC50 [16]: 16.8 µM (active) | IC50 (HEK293 [7]): 13.7 µM (active) | AC50 [9]: 6.38 µM (active) | AC50 [17]: > 70 µM (inactive)

SMILES: O=C(Nc1ccccc1)N1CC2(CCN(C(=O)Oc3ccccc3)CC2)C1
AC50 (Cytochrome P450 1A2): 20 µM (inconclusive) | AC50 (Cytochrome P450 3A4): inconclusive

SMILES: C[C@@H]1CN(Cc2nc(-c3cccs3)no2)C[C@H](C)O1
IC50 (HEK293 [10]): > 67.5 µM (inactive) | IC50 [11]: > 67.5 µM (inactive)

AC50 (Cytochrome P450 1A2): 25.1 µM (inconclusive) | AC50 (Cytochrome P450 2C9): 25.1 µM (inconclusive) | AC50 (Cytochrome P450 3A4): inconclusive
SMILES: O=C(Oc1ccccc1)N1CCC2(CC1)CN(c1ncccn1)C2

SMILES: CN(NC1OC(=O)c2ccccc21)c1ccccc1[N+](=O)[O-] (stereo not given)
IC50 (HEK293 [10]): > 67.5 µM (inactive) | IC50 [11]: > 67.5 µM (inactive)

SMILES: COC(=O)c1cc(/N=C/c2c(O)oc3ccccc3c2=O)cc(C(=O)OC)c1
IC50 (HEK293 [10]): > 67.5 µM (inactive) | IC50 [11]: > 67.5 µM (inactive)

IC50 (Cysteine protease ATG4B): 17.4 µM (active) | IC50 (Phospholipase A2): 7.99 µM (active)
SMILES: Cc1c(C)c(C)c(CO/N=C/c2cccs2)c(C)c1C
